Measured values reported in PubChem BioAssay AID330 (DTP/NCI, 2004).
Where “and” joins values, the source holds several entries; their conditions need not be identical. Equal values may be shown once. Toxic doses and inconclusive results are not listed.

Test system: P388 leukemia ip, CD2F1 mice, survival T/C
Assay: NCI In Vivo Anticancer Drug Screen. Data for tumor model P388 Leukemia (intraperitoneal) in CD2F1 (CDF1) mice
Details: endpoint: median survival time, higher = longer survival
Summary of the method: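 Mice carrying the transplanted tumor received test compound or vehicle. Survival was recorded in each group, and the value is the treated-group measurement divided by that of the vehicle-treated control group.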

[1] = dose: 100.0 mg/kg/injection, schedule: Q01DX009 (ip), vehicle: saline with Tween-80
[2] = dose: 60.0 mg/kg/injection, schedule: Q01DX005 (ip), vehicle: saline with Tween-80
[3] = dose: 120.0 mg/kg/injection, schedule: Q01DX005 (ip), vehicle: saline with Tween-80
[4] = dose: 50.0 mg/kg/injection, schedule: Q01DX009 (ip), vehicle: saline with Tween-80
[5] = dose: 50.0 mg/kg/injection, schedule: Q01DX009 (ip), vehicle: saline
[6] = dose: 100.0 mg/kg/injection, schedule: Q01DX009 (ip), vehicle: saline
[7] = dose: 200.0 mg/kg/injection, schedule: Q01DX009 (ip), vehicle: saline
[8] = dose: 50.0 mg/kg/injection, schedule: Q01DX005 (ip), vehicle: saline with Tween-80
[9] = dose: 50.0 mg/kg/injection, schedule: Q01DX005 (ip), vehicle: Klucel (hydroxypropylcellulose) (HPC)
[10] = dose: 100.0 mg/kg/injection, schedule: Q01DX005 (ip), vehicle: Klucel (hydroxypropylcellulose) (HPC)
[11] = dose: 200.0 mg/kg/injection, schedule: Q01DX005 (ip), vehicle: Klucel (hydroxypropylcellulose) (HPC)

With `CCN(CC)CCCC(C)Nc1c(C)cnc2cc(Cl)c(C)cc12` (stereo not drawn) the T/C (dose: 50.0 mg/kg/injection, schedule: Q01DX005 (ip), vehicle: saline) was 103 % of control and the T/C (dose: 100.0 mg/kg/injection, schedule: Q01DX005 (ip), vehicle: saline) was 100 % of control.

`COC1=C(C)C(=O)C2=C(C1=O)[C@@H]1[C@@H]3Cc4c(OC(=O)CO)c(C)c(OC)c(O)c4[C@H](CNC(=O)C(C)=O)N3[C@@H](C#N)[C@H](C2)N1C` was tested, and the T/C (dose: 0.63 mg/kg/injection, schedule: Q01DX005 (ip), vehicle: Klucel (hydroxypropylcellulose) (HPC)) was 106 % of control, the T/C (dose: 1.25 mg/kg/injection, schedule: Q01DX005 (ip), vehicle: Klucel (hydroxypropylcellulose) (HPC)) was 115 % of control and the T/C (dose: 2.25 mg/kg/injection, schedule: Q01DX005 (ip), vehicle: Klucel (hydroxypropylcellulose) (HPC)) was 120 % of control. The T/C (dose: 2.5 mg/kg/injection, schedule: Q01DX005 (ip), vehicle: Klucel (hydroxypropylcellulose) (HPC)) was 115 % of control, the T/C (dose: 625.0 micrograms/kg/injection, schedule: Q01DX005 (ip), vehicle: Klucel (hydroxypropylcellulose) (HPC)) was 103 % of control and the T/C (dose: 1250.0 micrograms/kg/injection, schedule: Q01DX005 (ip), vehicle: Klucel (hydroxypropylcellulose) (HPC)) was 110 % of control. For the same compound, the T/C (dose: 2500.0 micrograms/kg/injection, schedule: Q01DX005 (ip), vehicle: Klucel (hydroxypropylcellulose) (HPC)) was 116 % of control and the T/C (dose: 5000.0 micrograms/kg/injection, schedule: Q01DX005 (ip), vehicle: Klucel (hydroxypropylcellulose) (HPC)) was 118 % of control.

`COc1ccc(C2CC(=O)N(c3ncccn3)C(=O)C2)cc1` was tested, and the T/C (dose: 100.0 mg/kg/injection, schedule: Q04DX003 (ip), vehicle: saline) was 103 % of control, the T/C (dose: 200.0 mg/kg/injection, schedule: Q04DX003 (ip), vehicle: saline) was 94 % of control and the T/C (dose: 400.0 mg/kg/injection, schedule: Q04DX003 (ip), vehicle: saline) was 102 % of control.

With `COc1ccc2c(c1)CC(=CO)CC2=O.COc1ccc2c(c1)CC/C(=C/O)C2=O.[Cu]` the T/C (dose: 37.5 mg/kg/injection, schedule: Q01DX009 (ip), vehicle: saline with Tween-80) was 100 % of control, the T/C (dose: 75.0 mg/kg/injection, schedule: Q01DX009 (ip), vehicle: saline with Tween-80) was 90 % of control and the T/C [1] was 95 % of control. For the same compound, the T/C (dose: 150.0 mg/kg/injection, schedule: Q01DX009 (ip), vehicle: saline with Tween-80) was 109 % of control, the T/C (dose: 200.0 mg/kg/injection, schedule: Q01DX009 (ip), vehicle: saline with Tween-80) was 123 % of control and the T/C (dose: 200.0 mg/kg/injection, schedule: Q04DX003 (ip), vehicle: saline with Tween-80) was 91 % of control. The T/C (dose: 400.0 mg/kg/injection, schedule: Q04DX003 (ip), vehicle: saline with Tween-80) was 91 % of control.

`CN(C)B(N(C)C)N(C)C` was tested, and the T/C [2] was 101 % of control and the T/C [3] was 102 % of control.

In the case of `ClCC(OCc1ccccc1)OCc1ccccc1`, the T/C (dose: 12.5 mg/kg/injection, schedule: Q01DX009 (ip), vehicle: other) is reported as 114 % of control, the T/C (dose: 25.0 mg/kg/injection, schedule: Q01DX009 (ip), vehicle: other) is reported as 100 % of control and the T/C (dose: 50.0 mg/kg/injection, schedule: Q01DX009 (ip), vehicle: other) is reported as 100 % of control. The T/C (dose: 100.0 mg/kg/injection, schedule: Q01DX009 (ip), vehicle: other) was 111 % of control and the T/C (dose: 200.0 mg/kg/injection, schedule: Q01DX009 (ip), vehicle: other) was 119 % of control.

`COc1ccc(S(=O)(=O)N/N=C/C(=O)OCOC(=O)C(C)(C)C)cc1` was tested, and the T/C (dose: 5.0 mg/kg/injection, schedule: Q01DX005 (ip), vehicle: other) was 111 % of control, the T/C (dose: 5.0 mg/kg/injection, schedule: Q01DX005 (ip), vehicle: saline + Tween-80 + alcohol) was 116 % of control and the T/C (dose: 10.0 mg/kg/injection, schedule: Q01DX005 (ip), vehicle: saline + Tween-80 + alcohol) was 111 % of control. For the same compound, the T/C (dose: 12.5 mg/kg/injection, schedule: Q01DX005 (ip), vehicle: saline + Tween-80 + alcohol) was 119 % of control and the T/C (dose: 25.0 mg/kg/injection, schedule: Q01DX005 (ip), vehicle: saline + Tween-80 + alcohol) was 111 % of control.

With `CONC(=O)N/N=C\c1c(CO)cnc(C)c1O` the T/C (dose: 7.5 mg/kg/injection, schedule: Q01DX005 (ip), vehicle: Klucel (hydroxypropylcellulose) (HPC)) was 105 % of control, the T/C (dose: 15.0 mg/kg/injection, schedule: Q01DX005 (ip), vehicle: Klucel (hydroxypropylcellulose) (HPC)) was 102 % of control and the T/C (dose: 30.0 mg/kg/injection, schedule: Q01DX005 (ip), vehicle: Klucel (hydroxypropylcellulose) (HPC)) was 102 % of control.

`N/C(=N\O)N(c1ccccc1)c1ccccc1` was tested, and the T/C (dose: 25.0 mg/kg/injection, schedule: Q01DX009 (ip), vehicle: saline with Tween-80) was 97 % of control, the T/C [4] was 98 % of control and the T/C [1] was 99 % of control.

With `O=C(O)CC12CCC(CC1)OC2=O` the T/C [5] was 100 % of control, the T/C [6] was 106 % of control and the T/C [7] was 97 % of control.

`CC(C)N1NC1(C)C` (stereo not drawn) was tested, and the T/C [8] was 107 % of control, the T/C (dose: 100.0 mg/kg/injection, schedule: Q01DX005 (ip), vehicle: saline with Tween-80) was 107 % of control and the T/C (dose: 200.0 mg/kg/injection, schedule: Q01DX005 (ip), vehicle: saline with Tween-80) was 100 % of control.

In the case of `CC(=O)OC1C(O)C(C)OC(OC(=O)C2CCC3C(C2)OC2(CC(OC(=O)/C=C/c4ccccc4)C(C)CO2)C32CO2)C1OC1OC(C)C(O)C(O)C1O` (stereo not drawn), the T/C (dose: 2.0 mg/kg/injection, schedule: Q01DX005 (ip), vehicle: saline + alcohol) is reported as 100 % of control and 118 % of control, the T/C (dose: 4.0 mg/kg/injection, schedule: Q01DX005 (ip), vehicle: saline + alcohol) is reported as 119 % of control and the T/C (dose: 16.0 mg/kg/injection, schedule: Q01DX005 (ip), vehicle: saline + alcohol) is reported as 151 % of control. The T/C (dose: 32.0 mg/kg/injection, schedule: Q01DX005 (ip), vehicle: saline + alcohol) was 154 % of control and the T/C (dose: 64.0 mg/kg/injection, schedule: Q01DX005 (ip), vehicle: saline + alcohol) was 163 % of control.

With `O=c1[nH]cc(CCCc2ccccc2)c(=O)[nH]1` the T/C (dose: 60.0 mg/kg/injection, schedule: Q01DX005 (ip), vehicle: Klucel (hydroxypropylcellulose) (HPC)) was 102 % of control, the T/C (dose: 120.0 mg/kg/injection, schedule: Q01DX005 (ip), vehicle: Klucel (hydroxypropylcellulose) (HPC)) was 95 % of control and the T/C (dose: 240.0 mg/kg/injection, schedule: Q01DX005 (ip), vehicle: Klucel (hydroxypropylcellulose) (HPC)) was 95 % of control.

In the case of `CCOC(=O)CSc1sc(C(=O)OCC)c(N)c1C#N`, the T/C [4] is reported as 87 % of control.

For `COC(=O)c1cc(=O)nc(N/N=C/c2ccc3c(c2)OCO3)s1`, the T/C (dose: 12.5 mg/kg/injection, schedule: Q01DX005 (ip), vehicle: saline with Tween-80) was 99 % of control, the T/C (dose: 25.0 mg/kg/injection, schedule: Q01DX005 (ip), vehicle: saline with Tween-80) was 94 % of control and the T/C [8] was 94 % of control.

In the case of `Cc1nn(C)cc1P(=O)(c1ccccc1)c1ccccc1`, the T/C [9] is reported as 98 % of control and the T/C [10] is reported as 96 % of control.

With `COc1ccc(CC2c3cc(OC)c(OC)c(OC)c3CC[N+]2(C)C)cc1Oc1ccc(CC2c3cc4c(c(OC)c3CC[N+]2(C)C)OCO4)cc1` (stereo not drawn) the T/C (dose: 1.56 mg/kg/injection, schedule: Q04DX003 (ip), vehicle: saline) was 99 % of control and the T/C (dose: 3.13 mg/kg/injection, schedule: Q04DX003 (ip), vehicle: saline) was 101 % of control.

With `CC(=O)Nc1c(Br)cc(C)cc1Br` the T/C (dose: 50.0 mg/kg/injection, schedule: Q01DX009 (ip), vehicle: Klucel (hydroxypropylcellulose) (HPC)) was 94 % of control, the T/C (dose: 100.0 mg/kg/injection, schedule: Q01DX009 (ip), vehicle: Klucel (hydroxypropylcellulose) (HPC)) was 102 % of control and the T/C (dose: 200.0 mg/kg/injection, schedule: Q01DX009 (ip), vehicle: Klucel (hydroxypropylcellulose) (HPC)) was 100 % of control.

In the case of `O=C1NC(=O)c2ccc3c4ccc5c6c(ccc(c7ccc1c2c73)c64)C(=O)N(c1ccccc1)C5=O`, the T/C (dose: 6.25 mg/kg/injection, schedule: Q01DX005 (ip), vehicle: Klucel (hydroxypropylcellulose) (HPC)) is reported as 99 % of control, the T/C (dose: 12.5 mg/kg/injection, schedule: Q01DX005 (ip), vehicle: Klucel (hydroxypropylcellulose) (HPC)) is reported as 101 % of control and 94 % of control and the T/C (dose: 25.0 mg/kg/injection, schedule: Q01DX005 (ip), vehicle: Klucel (hydroxypropylcellulose) (HPC)) is reported as 107 % of control. For the same compound, the T/C [9] was 93 % of control, the T/C [10] was 95 % of control and the T/C [11] was 88 % of control.

For `CCCCCCCCn1c(C)nc2c(cnn2C)c1=O`, the T/C [9] was 100 % of control, the T/C [10] was 96 % of control and the T/C [11] was 100 % of control.

With `Cc1cc(=O)oc2cc3occc(=O)c3cc12` the T/C [2] was 98 % of control, the T/C [3] was 95 % of control and the T/C (dose: 240.0 mg/kg/injection, schedule: Q01DX005 (ip), vehicle: saline with Tween-80) was 92 % of control.

With `O=C1CCC(CCl)(C(=O)O)O1` (stereo not drawn) the T/C [5] was 106 % of control, the T/C [6] was 106 % of control and the T/C [7] was 91 % of control.
